Measured values as given in patent US9585903B2, “Pharmaceutical composition comprising sophorolipid in combination with an antibiotic” (priority 2013, dated 2017).
Where a name gives a salt, the structure may show the parent alone. Read-outs that look alike come from different tables or passages of the source.

How the values were obtained:
Type in all cases: cell-based
[1] = tested on: Escherichia coli (ATCC-8739); experiment: Assay of conjugative action of SL and antibiotic (micro dilution and spread plate, CFU count, % cell survival)
Description: (§4) Accordingly, the stock solutions were prepared in sterile distilled water to assess the MIC values of the antibiotic and SL. The stock strength used was 1 mg/ml for antibiotics and 10 mg/ml for SL. […] In the first step, A600 i.e. absorbance of bacterial suspension giving isolated colonies was fixed and the same A600 was maintained throughout the experiment. Then the MIC values were determined for SL as well as antibiotic against the bacteria. […] For assessing the conjugative effect, the sublethal concentrations of both antimicrobial agents were used so as to rightly evaluate the conjugative effect.
(§5) According to another aspect, the assay of conjugative action of SL and antibiotic was performed using standard micro dilution and spread plate method. The reaction mixtures were prepared by adding SL and antibiotic stock solutions to sterile distilled water in requisite volumes followed by the addition of bacterial suspension. The control reactions were also set with both bacterial systems to evaluate the effect of antibiotic and SL alone. Controls without addition of any antimicrobial agent were also maintained. The reaction mixtures were incubated at 28° C., 180 rpm for 6 h. The samples were removed at periodic intervals of 2 h, 4 h and 6 h and number of Colony Forming Units (CFUs) were determined by spreading 50 μl of mixture on Nutrient agar plates. […]

[2] = tested on: Escherichia coli (ATCC-8739); experiment: MIC determination on culture plate; conditions: against E. coli (ATCC8739)
Description: (§1) The test microorganisms—Staphylococcus aureus (ATCC-29737) (gram positive) and Escherichia coli (ATCC-8739) (gram negative) used in the invention were procured from National Collection of Industrial Microorganisms, NCL. These two bacteria are of concern due to following reasons—Staphylococcus aureus, capable of causing wide range of severe skin infections; is rapidly evolving resistance to contemporary topical as well as systemic antibiotics (Englander and Friedman 2010). And Escherichia coli, another index bacterium; is more than just a harmless intestinal inhabitant; it can also be a highly versatile, and frequently deadly pathogen. Several different E. coli strains cause diverse intestinal and extra-intestinal diseases by means of virulence factors that affect a wide range of cellular processes (Kaper et al. 2004).
(§2) Accordingly, the stock solutions were prepared in sterile distilled water to assess the MIC values of the antibiotic and SL. The stock strength used was 1 mg/ml for antibiotics and 10 mg/ml for SL. The conjugative/synergistic effect of SL and tetracycline was checked against S. aureus while the conjugative effect of SL and cefaclor was checked against E. coli. In the first step, A600 i.e. absorbance of bacterial suspension giving isolated colonies was fixed and the same A600 was maintained throughout the experiment. Then the MIC values were determined for SL as well as antibiotic against the bacteria. Minimum Inhibitory Concentration (MIC) is defined as the lowest concentration of compound that inhibits visible growth of microorganisms on the culture plate (Rai et al. 2010). For assessing the conjugative effect, the sublethal concentrations of both antimicrobial agents were used so as to rightly evaluate the conjugative effect. Against S. aureus, sublethal concentration of SL was decided to be 300 μg/ml and for tetracycline it was 15 μg/ml.
(§3) The stock solutions were prepared in sterile distilled water to assess the MIC values of the antibiotic and SL. The stock strength used was 1 mg/ml for antibiotics and 10 mg/ml for SL. […]

[3] = tested on: Staphylococcus aureus (ATCC-29737); experiment: Assay of conjugative action of SL and antibiotic (micro dilution and spread plate, CFU count, % cell survival); conditions: FIG. 2(a); tetracycline 15 μg/ml, SL 300 μg/ml; up to 6 h exposure
Description: as §4, §5

[4] = tested on: Staphylococcus aureus (ATCC-29737); experiment: MIC determination on culture plate
Description: as §1, §2, §3

SMILES	exposure required to get equivalent effect (~98% killing) ([1]; E. coli, cefaclor alone 50 μg/ml)	inhibition of E. coli (in words) ([1]; FIG. 2(b), cefaclor 50 μg/ml, SL 500 μg/ml, up to 6 h exposure)	MIC [2]	inhibition of S. aureus (in words) [3]	MIC ([4]; Staphylococcus aureus, against S. aureus (ATCC29737), read-out: MIC value)	MIC ([4]; against Staphylococcus aureus)
N[C@@H](C(=O)N[C@@H]1C(=O)N2C(C(=O)O)=C(Cl)CS[C@H]12)c1ccccc1 [Cefaclor]	6 h	almost total inhibition at the end of 6 h exposure	200 µg/mL			
CN(C)[C@@H]1C(O)=C(C(N)=O)C(=O)[C@@]2(O)C(O)=C3C(=O)c4c(O)cccc4[C@@](C)(O)[C@H]3C[C@@H]12 [tetracycline-HCl]				cannot achieve total inhibition even after 6 h	150 µg/mL	150 μn/ml
